Results reported in patent US20050026836A1, “Composition for the treatment of damaged tissue” (priority 1999, published 2005).
Several values for one entry are separate records, joined by “and”; a condition that tells them apart may be missing. Identical values can stand only once. Like-named read-outs stand apart in the source and are kept apart here. Blank lines part the entries; values can stand above or below the compound they belong to.

What was measured:
human tPA = molecular target: T1, human tPA (Homo sapiens, UniProt P00750); test: tPA chromogenic inhibition assay (S2288); type: biochemical; conditions: 100 μM compound
T1 construct: Human tPA (one chain) 10 μg/vial (Chromogenix, 821157-039/0); purchased Chromogenix 821157-039/0
Procedure: The method for analysis of tPA inhibition is similar to that for uPA inhibition. The assay utilises final concentrations of tPA of 0.4 µg/ml with 0.1 mg/ml tPA stimulator, 0.4 mM S2288 (substrate) and various concentrations of inhibitors, made up in uPA assay buffer. Pre-incubation is carried out with compound, enzyme and enzyme stimulator, as for uPA, prior to the incubation with substrate. Incubation time is 60 minutes at performed at 37° C. Data analysis is identical to that described above for uPA, using a known Km for tPA of 250 μM.
The incubation was performed at 37° C. for 60 mins. Percentage inhibition was calculated.

uPA [1] = molecular target: T2, uPA (Homo sapiens, UniProt P00749); test: biochemical; conditions: for Ki: UPA
Procedure: A pre-incubation of compound with enzyme is carried out for 15 minutes at 37° C., followed by substrate addition and further incubation for 30 minutes at the same temperature. The final assay volume is 200[…]1.
uPA (urokinase type plasminogen activator) inhibition was assayed by incubating human uPA at 33 IU/ml in 75 mM Tris, pH 8.1, 50 mM NaCl with 180 μM S2444 (substrate) and various concentrations of inhibitors. For the primary screen results, the incubation was performed at 37° C. for 30 minutes.
These assays were carried out in a 96-well plate. […] The incubation was performed after an initial pre-incubation at 37° C. for 15 mins and absorbance was read at 405 nm at 0 mins and at the end of the incubation on a […]ax microplate reader (Molecular Devices Corporation), using SOFTMaxPRO software.

Plasmin = molecular target: T3, Plasmin (Homo sapiens, UniProt P00747); test: Plasmin chromogenic inhibition assay (Chromozym-PL); type: biochemical; conditions: 100 μM compound
T3 construct: Human plasmin, 2 mg/vial (Quadratech, 810665) was reconstituted to 1 mg/ml in buffer; purchased Quadratech 810665
Procedure: Plasmin inhibition is assayed by incubating human plasmin at 0.7 μg/ml with 0.2 mM Chromozym-PL (substrate) and various concentrations of inhibitors in uPA assay buffer. Pre-incubation is carried out as for uPA and the incubation is performed at 37° C. for 30 mins.
The incubation was performed at 37° C. for 30 mins. Percentage inhibition was calculated.

uPA [2] = molecular target: T2, uPA; test: biochemical; conditions: read-out: Percentage inhibition of proteolysis
Procedure: (§1) The extent of proteolysis of the growth factors was assayed by incubating TGF-β2, VEGF, PDGF-BB and KGF-2 with the proteases uPA, plasmin, MMP-3 and MMP-13 in assay buffer (either uPA/plasmin buffer, 50 mM tris-HCl, pH 7.4 or MMP assay buffer, 100 mM Tris, 10 mM NaCl, 10 mM CaCl2, 0.05% (w/v) Brij 35, pH 7.5). […] The growth factors were added to the incubation mixture at a final concentration of […], unless otherwise stated.
(§2) The effects of uPA were determined by incubation at a typical final concentration of 25 μg/ml (1500 U/ml) with each growth factor. The effects of plasmin were determined at a typical final concentration of 0.1 mg/ml by incubation with the individual growth factors in assay buffer. MMP-3 and -13 were incubated at a typical final concentration of 10 nM with the growth factors in assay buffer. Dual protease assays carried out with uPA and MMP-3 together were performed in 100 mM Tris, […], 10 mM CaCl2, 0.05% (w/v) Brij 35, pH 7.5. All incubations were performed in siliconised tubes (Sigma Aldrich, UK).
(§3) The inhibitors used in these experiments were compound 9454, compound 9470 and compound 5214. These were dissolved in DMSO at a concentration of 10 mM. Typical final concentrations for these inhibitors were in the range of 100 μM to 10 nM. Aprotinin was dissolved in the Tris buffer at 10 mg/ml and used at a typical concentration of 10 μg/ml.
All assays were carried out at 37° C. and enzymes were pre-incubated for 15 minutes with or without inhibitor as appropriate, prior to addition of growth factors. After the addition of growth factor, the incubation mixtures were divided into aliquots in siliconised tubes for each time point used. Incubations were carried out over a time course typically of 24 hours, unless otherwise stated. They were stopped by the addition of an equal volume of 2×Novex reducing loading buffer (final concentration 1.09 M glycerol, 141 mM Tris-base, 106 mM Tris-HCl, 73 mM lithium dodecyl sulphate (LDS), 0.5 mM ethylenediaminetetraacetic acid, 0.22 mM Serva Blue G250, 0.175 mM Phenol Red, pH 8.5) and samples prepared for electrophoresis by incubating at 70° C. for 10 minutes.
LDS-PAGE was performed using the NOVEX Xcell II Mini-Cell gel apparatus (Groningen, Holland) using a variation on the method of Laemmli (1970). Equal volumes of samples were loaded onto NuPage 4-12% Bis-tris gels with molecular weight markers (SeeBlue Plus2 Pre-stained Standards). Molecular weight determination was performed by comparison of bands with markers of molecular weight 3, 6, 14, 17, 28, 38, 49, 62, 98 and 188 kDa. […]

uPA and MMP-3 = test: Inhibition of uPA and MMP-3-mediated KGF-2 degradation (dual protease assay); type: biochemical, human; conditions: uPA and MMP-3 together / KGF-2; inhibitors used (100 μM), alone or in combination
Procedure: as §1, §2
as §3, with “μg/ml. […]” for “μg/ml.”

[3] = tested on: circular full thickness lesions; test: Normal wound healing in pigs, full thickness lesions; type: in vivo; conditions: 0.3% w/v formulation in CMC hydrogel, 1 ml topically daily, pig
Procedure: The experiment was performed in 3 female SPF pigs (crossbreed of Danish country, Duroc and Yorkshire). At start of the acclimatisation period the body weight of the animals was about 30 kg. The lesions were established on day 1. The animals were anaesthetised with Stresnil® Vet. Janssen, Belgium (40 mg azaperone/ml, 1 ml/10 kg), and Atropin DAK, Denmark (1 mg atropine/ml, 0.05 ml/kg), given as a single intramuscular injection followed by i.v. injection of Hypnodil® Janssen, Belgium (50 mg metomidate/ml, 1-2 ml). Eight circular full thickness lesions (diameter 20 mm) were made on the prepared area, four on each side of the spine. The lesions were numbered 1 (most cranial) to 4 (most caudal) on the left side of the animal, and 5 (most cranial) to 8 (most caudal) on the right side of the animal. After surgery and daily thereafter, the test articles were applied as follows: The dosing volume of each dosing was 1 ml. The dressings were changed on a daily basis. Each lesion was observed daily. The outlines of the wound edge and the epithelial edge will be drawn on sterile transparent sheets, and the areas contained inside the edges were measured planimetrically. The measurement of areas was performed by Scan Beam […] processed to give group mean values and standard deviations where appropriate. Possible outliers were identified, too. Each variable was tested for normality by the Shapiro-Wilk method. In case of normal distribution, two-way analysis of variance was carried out for the variable with the factor: animal and treatment, and if significant difference were detected, possible intergroup differences were assessed using the least-squares means. Otherwise the possible intergroup differences were identified with Wilcoxon Rank-Sum test.

[4] = molecular target: T4, catalytic domain human MMP-14 (Homo sapiens, UniProt P50281); test: MMP-14 fluorogenic inhibition assay; type: biochemical; conditions: read-out: Calculated Ki(nM) MMP-14
T4 construct: made in house
Procedure: (§4) All enzymes were pre-activated at 37° C. with aminophenylmercuric acetate (APMA) or trypsin before being made up to the final concentrations used in the assay. MMP-1 (30 nM) was activated with 0.93 mM APMA for 20 minutes, MMP-2 (30 nM) was activated with 1.32 mM APMA for 1 hour, MMP-3 (1010 nM) was activated with 1.81 mM APMA for 3 hours or heat activated at 55° C. for three hours, MMP-9 (100 nM) was activated with 2 mM APMA for 2 hours, human MMP-13 (100 nM) was activated with 2 mM APMA for 2 hours, and MMP-14 (900 nM) was activated with 0.9 ng/ml trypsin for 25 minutes, followed by the addition of 4.5 ng/ml trypsin inhibitor.
(§5) For MMP-1, the assay buffer used was 50 mM Tris, 200 mM NaCl, 5 mM CaCl2, 20 μM ZnCl2, 0.05% (w/v) Brij 35, pH 7.5. […] For MMP-13, the assay buffer used was 50 mM Tris, pH 7.5, 200 mM NaCl, 5 mM CaCl2, […] and 0.02% (w/v) Brij 35. For MMP-14, the assay buffer used was 50 mM Tris, 100 mM NaCl, 10 mM CaCl2, 0.25% (w/v) Brij 35, pH 7.5.
MMP-14 inhibition was assayed by incubating activated catalytic domain human MMP-14 at 1 nM in assay buffer with 10 μM Mca-Pro-Leu-Gly-Leu-Dpa-Ala-Arg-NH2 and six concentrations of inhibitor. The incubation was performed at 37° C. for 60 minutes.
(§6) The final assay concentrations of inhibitors used in the MMP-1 assays to determine Ki were 50, 40, 30, 20, 10 and 5 μM. For MMP-2, the final assay concentrations of inhibitors used were 1000, 800, 600, 400, 200 and 100 nM. For MMP-3, the final assay concentrations of inhibitors used were 5, 4, 3, 2, 1 and 0.5 nM. For MMP-9 and MMP-14, the final assay concentrations of inhibitors used were 5, 4, 3, 2, 1 and 0.5 μM.
(§7) All assays were carried out in a black 96-well plate with a final volume of 100 μl in each well. Inhibitors were dissolved in dimethylsulphoxide (DMSO) to 1 mM. […] For MMP-2, MMP-3, MMP-9 and MMP-14, fluorescence was read every 2 minutes at […] and 393 nm γem for 1 hour using a Fluorostar fluorimeter (BMG) with BIOLISE software. For MMP-1 assays, the filters used were 355 nm γex and 440 nm γem; fluorescence was read every 2 minutes for 1 hour. […]

[5] = molecular target: T5, catalytic domain of human MMP-9 (Homo sapiens, UniProt P14780); test: MMP-9 fluorogenic inhibition assay; type: biochemical; conditions: read-out: Calculated Ki(nM) MMP-9
T5 sequence (P14780 with tags, fused parts or gaps DEL216-390 limits assumed): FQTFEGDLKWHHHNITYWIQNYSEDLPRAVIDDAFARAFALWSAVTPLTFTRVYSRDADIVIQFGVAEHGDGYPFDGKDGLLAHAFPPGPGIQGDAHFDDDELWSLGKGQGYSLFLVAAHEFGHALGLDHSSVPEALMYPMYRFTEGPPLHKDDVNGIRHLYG
Procedure: as §4, §5
MMP-2, MMP-3 and MMP-9 inhibition was assayed by incubating activated catalytic domain of human MMP-2, MMP-3 and MMP-9 at 1 nM in assay buffer with 5 μM substrate Mca-Arg-Pro-Lys-Pro-Tyr-Ala-Nva-Trp-Met-Lys(Dnp)-NH2, and six different concentrations of inhibitor. The incubation was performed at 37° C. for 60 minutes.
as §6
as §7, with “well.” for “well. Inhibitors were dissolved in dimethylsulphoxide (DMSO) to 1 mM.”

[6] = individual determinations, 100 µM
[7] = individual determinations, read-out: % inhibition at 100 μM
[8] = mean ± sem, read-out: % inhibition at 100 μM Mean ± sem

T3 sequence (P00747 581-810 limits assumed): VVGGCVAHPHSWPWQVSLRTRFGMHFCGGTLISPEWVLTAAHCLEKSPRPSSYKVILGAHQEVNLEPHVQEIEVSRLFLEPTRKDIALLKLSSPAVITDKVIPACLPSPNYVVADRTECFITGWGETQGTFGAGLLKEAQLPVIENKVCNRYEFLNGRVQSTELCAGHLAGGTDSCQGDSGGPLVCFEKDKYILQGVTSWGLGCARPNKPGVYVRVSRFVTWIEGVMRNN
T3 sequence (P00747 97-580 partner limits assumed): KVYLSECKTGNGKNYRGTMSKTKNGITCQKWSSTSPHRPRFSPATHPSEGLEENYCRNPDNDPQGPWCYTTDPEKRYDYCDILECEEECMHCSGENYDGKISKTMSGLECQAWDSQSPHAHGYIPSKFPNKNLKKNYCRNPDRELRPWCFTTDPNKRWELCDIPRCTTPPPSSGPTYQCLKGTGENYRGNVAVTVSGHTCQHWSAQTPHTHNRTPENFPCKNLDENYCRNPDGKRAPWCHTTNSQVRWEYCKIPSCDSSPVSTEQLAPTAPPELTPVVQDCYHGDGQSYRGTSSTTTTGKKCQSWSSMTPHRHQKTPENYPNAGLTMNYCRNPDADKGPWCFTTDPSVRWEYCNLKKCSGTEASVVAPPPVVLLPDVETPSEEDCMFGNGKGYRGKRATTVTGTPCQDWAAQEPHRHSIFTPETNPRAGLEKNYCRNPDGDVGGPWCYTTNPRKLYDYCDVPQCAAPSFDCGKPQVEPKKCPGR
T1 sequence (P00750 36-562): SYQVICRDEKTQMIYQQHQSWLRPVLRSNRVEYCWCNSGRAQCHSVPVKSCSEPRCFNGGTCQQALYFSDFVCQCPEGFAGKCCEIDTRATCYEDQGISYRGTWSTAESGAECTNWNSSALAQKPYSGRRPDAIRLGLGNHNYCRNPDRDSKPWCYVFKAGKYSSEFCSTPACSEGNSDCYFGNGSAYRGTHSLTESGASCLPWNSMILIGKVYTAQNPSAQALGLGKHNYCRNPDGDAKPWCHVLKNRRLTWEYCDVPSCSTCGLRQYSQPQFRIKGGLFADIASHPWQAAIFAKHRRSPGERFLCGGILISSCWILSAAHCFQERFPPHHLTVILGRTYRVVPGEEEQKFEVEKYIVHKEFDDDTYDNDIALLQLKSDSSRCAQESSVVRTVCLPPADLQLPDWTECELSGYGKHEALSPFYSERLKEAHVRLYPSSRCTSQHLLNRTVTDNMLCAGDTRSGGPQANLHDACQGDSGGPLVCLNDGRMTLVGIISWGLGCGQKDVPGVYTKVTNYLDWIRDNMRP

Structure (SMILES): NC(N)=Nc1ncc(Cl)c2ccc(S(=O)(=O)N3CCCC3C(=O)O)cc12 (centres unmarked) [compound 5214]
% inhibition at 100 μM (human tPA; [6]): 47% and 50% | inhibition at 100 µM (human tPA; [7]): 38% | inhibition at 100 µM (human tPA; [8]): 45 ± 3.61% | Ki (uPA [1]; Calculated Ki (nM) Mean ± sem, mean ± sem): 9.9 ± 0.76 nM | Ki (uPA [1]; Calculated Ki (nM), individual determinations): 11 nM and 9.6 nM and 7.8 nM | Potency as inhibitor of uPA (in words) (uPA [1]; from Table 1): potent inhibitor of uPA | % inhibition at 100 μM (Plasmin; [6]): 33% and 28% and 27% | inhibition at 100 µM (Plasmin; [7]): 31% | inhibition at 100 µM (Plasmin; [8]): 29.8 ± 1.38% | inhibition at 0.1 µM (uPA [2]): 17% | inhibition at 1 µM (uPA [2]): 76% | inhibition at 10 µM (uPA [2]): 83% | inhibition at 100 µM (uPA [2]): 91% | Percentage inhibition of proteolysis (uPA and MMP-3): 38.6

Ki [4]: 3.68 nM | Ki [5]: 0.47 nM
Structure (SMILES): CNC(=O)[C@@H](Cc1ccccc1)NC(=O)C(CC(C)C)[C@H](CSc1cccs1)C(=O)NO (some centres unmarked) [compound 5719]
Non-epithelialised area MEAN ([3]; DAY 8): 294.0 | Non-epithelialised area MEAN ([3]; DAY 9): 248.0 | Non-epithelialised area MEAN ([3]; DAY 10): 210.1 | Non-epithelialised area MEAN ([3]; DAY 11): 148.9
